In ChEMBL document CHEMBL1127153, “Synthesis and anti-arthritic activity of a series of 1-aryl-3-dimethylamino-1,4-dihydroisoquinolines” (1993) one finds inhibition in vivo and Max inhibitory effect data, which are given here for 15 compounds.

Assay type in all cases: functional
The subject of assay [1] is Rattus norvegicus. As to the kind of experiment: The compound was examined for cell accumulation in the rat by Arthus reaction after peroral administration at 12.5mg/Kg, activity expressed as percent inhibition. The settings on record: po.
In assay [2] the test system is Rattus norvegicus. As to the kind of experiment: The compound was examined for cell accumulation in the rat by Arthus reaction after peroral administration at 25 mg/Kg, activity expressed as percent inhibition. The settings on record: po.
Assay [3] relates to Rattus norvegicus. As to the kind of experiment: The compound was examined for cell accumulation in the rat by Arthus reaction after peroral administration at 50 mg/Kg, activity expressed as percent inhibition. Particulars: po.
Assay [4] relates to Rattus norvegicus. As to the kind of experiment: The compound was examined for cell accumulation in the rat by pleural exudate model after peroral administration at 12 mg/Kg, activity expressed as percent inhibition. The settings on record: po.
Assay [5] concerns Rattus norvegicus. As to the kind of experiment: The compound was examined for cell accumulation in the rat by polyvinyl sponge model after peroral administration at 10 mg/Kg, activity expressed as percent inhibition. The settings on record: po.
For assay [6], the system named is Rattus norvegicus. As to the kind of experiment: The compound was examined for cell accumulation in the rat by polyvinyl sponge model after peroral administration at 25 mg/Kg, activity expressed as percent inhibition. The settings on record: po.
The subject of assay [7] is Rattus norvegicus. Description: Antiarthritic activity against rat adjuvant model after peroral administration of 25 mg/Kg of compound, activity expressed as %maximum inhibitory effect on arthritis score.
For assay [8], the system named is Rattus norvegicus. Description: Antiarthritic activity against rat adjuvant model after peroral administration of 25 mg/Kg of compound, activity expressed as %maximum inhibitory effect on injected paw depth.
Assay [9] concerns Rattus norvegicus. As to the kind of experiment: Antiarthritic activity against rat adjuvant model after peroral administration of 12.5 mg/Kg of compound, activity expressed as %maximum inhibitory effect on arthritis score.
Assay [10] concerns Rattus norvegicus. Description: Antiarthritic activity against rat adjuvant model after peroral administration of 12.5 mg/Kg of compound, activity expressed as %maximum inhibitory effect on injected paw depth.
In assay [11] the test system is Rattus norvegicus. Description: The compound was examined for cell accumulation in the rat by pleural exudate model after peroral administration at 12.5 mg/Kg, activity expressed as percent inhibition. Particulars: po.
Assay [12] deals with Rattus norvegicus. Description: The compound was examined for cell accumulation in the rat by pleural exudate model after peroral administration at 25 mg/Kg, activity expressed as percent inhibition. The settings on record: po.
Assay [13] deals with Rattus norvegicus. Description: The compound was examined for cell accumulation in the rat by pleural exudate model after peroral administration at 6 mg/Kg, activity expressed as percent inhibition. The settings on record: po.
The test system of assay [14] is Rattus norvegicus. As to the kind of experiment: Antiarthritic activity against rat adjuvant model after peroral administration of 25 mg/Kg of compound: activity expressed as %maximum inhibitory effect on arthritis score.
Assay [15] concerns Rattus norvegicus. As to the kind of experiment: Antiarthritic activity against rat adjuvant model after peroral administration of 12.5 mg/Kg of compound: activity expressed as %maximum inhibitory effect on arthritis score.
In assay [16] the test system is Rattus norvegicus. Description: The compound was examined for cell accumulation in the rat by pleural exudate model after oral administration at 25 mg/Kg, activity expressed as percent inhibition.
The test system of assay [17] is Rattus norvegicus. As to the kind of experiment: The compound was examined for cell accumulation in the rat by polyvinyl sponge model after peroral administration at 12.5 mg/Kg, activity expressed as percent inhibition. Particulars: po.
Assay [18] concerns Rattus norvegicus. Description: Antiarthritic activity against rat adjuvant model after peroral administration of 5 mg/Kg of compound, activity expressed as %maximum inhibitory effect on arthritis score.
Assay [19] has as its system Rattus norvegicus. As to the kind of experiment: Antiarthritic activity against rat adjuvant model after peroral administration of 5 mg/Kg of compound, activity expressed as %maximum inhibitory effect on injected paw depth.
Assay [20] concerns Rattus norvegicus. As to the kind of experiment: The compound was examined for cell accumulation in the rat by Arthus reaction after peroral administration at 12.5 mg/Kg, activity expressed as percent inhibition. Particulars: po.
The test system of assay [21] is Rattus norvegicus. Description: The compound was examined for cell accumulation in the rat by Arthus reaction after peroral administration at 6.25 mg/Kg, activity expressed as percent inhibition. Particulars: po.
For assay [22], the system named is Rattus norvegicus. As to the kind of experiment: The compound was examined for cell accumulation in the rat by pleural exudate model after peroral administration at 3 mg/Kg, activity expressed as percent inhibition. The settings on record: po.
For assay [23], the system named is Rattus norvegicus. Description: The compound was examined for cell accumulation in the rat by polyvinyl sponge model after peroral administration at 5 mg/Kg, activity expressed as percent inhibition. The settings on record: po.
The subject of assay [24] is Rattus norvegicus. As to the kind of experiment: Antiarthritic activity against rat adjuvant model after peroral administration of 10 mg/Kg of compound, activity expressed as %maximum inhibitory effect on arthritis score.
For assay [25], the system named is Rattus norvegicus. As to the kind of experiment: Antiarthritic activity against rat adjuvant model after peroral administration of 10 mg/Kg of compound, activity expressed as %maximum inhibitory effect on injected paw depth.
The subject of assay [26] is Rattus norvegicus. Description: Antiarthritic activity against rat adjuvant model after peroral administration of 6 mg/Kg of compound, activity expressed as %maximum inhibitory effect on arthritis score.
The subject of assay [27] is Rattus norvegicus. As to the kind of experiment: Antiarthritic activity against rat adjuvant model after peroral administration of 6 mg/kg of compound, activity expressed as %maximum inhibitory effect on injected paw depth. The settings on record: route oral.
Assay [28] relates to Rattus norvegicus. Description: Antiarthritic activity against rat adjuvant model after intravenous administration of 25 mg/Kg of compound, activity expressed as %maximum inhibitory effect on arthritis score.
In assay [29] the test system is Rattus norvegicus. As to the kind of experiment: Antiarthritic activity against rat adjuvant model after intravenous administration of 25 mg/Kg of compound, activity expressed as %maximum inhibitory effect on injected paw depth.
Assay [30] has as its system Rattus norvegicus. Description: Antiarthritic activity against rat adjuvant model after peroral administration of 50 mg/Kg of compound, activity expressed as %maximum inhibitory effect on injected paw depth.
Assay [31] concerns Rattus norvegicus. As to the kind of experiment: Antiarthritic activity against rat adjuvant model after intravenous administration of 50 mg/Kg of compound, activity expressed as %maximum inhibitory effect on arthritis score.

What is called inhibition in vivo is how much of the control response was suppressed. For the compound `CN(C)C1=NC(c2ccccc2F)c2ccccc2C1.Cl` (stereo not drawn), 12.5 mg/kg produced 28% inhibition in vivo with Rattus norvegicus [1]. The inhibition in vivo at 25 mg/kg in the assay on Rattus norvegicus [2] came out at 44%; with Rattus norvegicus [6], 24%. In addition, the inhibition in vivo at 50 mg/kg in the assay with Rattus norvegicus [3] came out at 55%. The compound further displayed an inhibition in vivo at 12 mg/kg in the assay with Rattus norvegicus [4] of 33%. In addition, the inhibition in vivo at 10 mg/kg in the assay with Rattus norvegicus [5] was determined as 12%. In addition, the Max inhibitory effect in the assay on Rattus norvegicus [7] is 37%; in the assay with Rattus norvegicus [8], 13%.

In the case of `Cl.Clc1ccc(C2N=C(N3CCOCC3)Cc3ccccc32)cc1` (stereo not drawn), the figures for the Max inhibitory effect with Rattus norvegicus [7] and with Rattus norvegicus [8] were 5% and 7%, respectively.

In the case of `Cl.NC1=NC(c2ccc(Cl)cc2)c2ccccc2C1` (stereo not drawn), the Max inhibitory effect in the assay on Rattus norvegicus [7] is given as -3%; in the assay with Rattus norvegicus [8], 0%.

For the compound `CN(C)C1=NC(c2ccc([N+](=O)[O-])cc2)c2ccccc2C1.Cl` (stereo not drawn), the Max inhibitory effect is recorded as 30% in the assay on Rattus norvegicus [9] and 33% in the assay with Rattus norvegicus [10].

For the compound `CN(C)C1=NC(c2ccccc2Cl)c2ccccc2C1.Cl` (stereo not drawn), the inhibition in vivo at 25 mg/kg in the assay with Rattus norvegicus [2] is 19%; with Rattus norvegicus [12], 48%; in the assay on Rattus norvegicus [6] it was 19%. The same compound gave an inhibition in vivo at 50 mg/kg in the assay with Rattus norvegicus [3] of 34%. In addition, the inhibition in vivo at 12.5 mg/kg with Rattus norvegicus [11] is 28%. For the same compound, the inhibition in vivo at 6 mg/kg in the assay on Rattus norvegicus [13] was found to be 27%. Moreover, the Max inhibitory effect in the assay with Rattus norvegicus [14] is reported as 36%; with Rattus norvegicus [8] it was 30%; with Rattus norvegicus [15] it was 10%; in the assay with Rattus norvegicus [10] it was 12%.

Take `CN(C)C1=NC(c2ccccc2)c2ccccc2C1.Cl` (stereo not drawn): the Max inhibitory effect is 13% in the assay with Rattus norvegicus [7] and -6% with Rattus norvegicus [8].

Take `CN(C)C1=NC(c2ccc(Cl)cc2)c2ccccc2C1.Cl` (stereo not drawn): the inhibition in vivo at 25 mg/kg came out at 28% in the assay with Rattus norvegicus [16] and 30% in the assay with Rattus norvegicus [6]. The inhibition in vivo at 12.5 mg/kg stood at 21% in the assay on Rattus norvegicus [11] and 15% in the assay on Rattus norvegicus [17]. The compound also yielded an inhibition in vivo at 6 mg/kg with Rattus norvegicus [13] of 19%. Besides, the Max inhibitory effect with Rattus norvegicus [18] is given as 18%; with Rattus norvegicus [19], 30%; in the assay with Rattus norvegicus [9] it was 44%; with Rattus norvegicus [10], 80%.

Consider `CN(C)C1=NC(c2cccc(Cl)c2)c2ccccc2C1.Cl` (stereo not drawn), for which the inhibition in vivo at 12.5 mg/kg with Rattus norvegicus [20] worked out at 30%; in the assay on Rattus norvegicus [11], 41%. In the assay with Rattus norvegicus [2], the inhibition in vivo at 25 mg/kg was determined as 29%. The inhibition in vivo at 50 mg/kg in the assay with Rattus norvegicus [3] came to 42%. In the assay on Rattus norvegicus [21], this compound registered an inhibition in vivo at 6.25 mg/kg of 31%. Also, in the assay with Rattus norvegicus [22], at 3 mg/kg the inhibition in vivo was 36%. The compound further yielded an inhibition in vivo at 6 mg/kg in the assay on Rattus norvegicus [13] of 41%. Further, the inhibition in vivo at 10 mg/kg in the assay with Rattus norvegicus [5] was 35%. Moreover, in the assay with Rattus norvegicus [23], the inhibition in vivo at 5 mg/kg amounted to 8%. In addition, the Max inhibitory effect with Rattus norvegicus [7] is 53%; in the assay with Rattus norvegicus [8] it was 84%; in the assay with Rattus norvegicus [24], 29%; with Rattus norvegicus [25], 32%.

For `Cl.Clc1ccc(C2N=C(NCc3ccccc3)Cc3ccccc32)cc1` (stereo not drawn), the Max inhibitory effect in the assay with Rattus norvegicus [7] was -7%; with Rattus norvegicus [8] it was 10%.

Take `CN(C)C1=NC(c2ccc(Cl)cc2)c2cc(Cl)ccc2C1.Cl` (stereo not drawn): the Max inhibitory effect in the assay on Rattus norvegicus [7] stood at 54%; with Rattus norvegicus [8], 86%; in the assay on Rattus norvegicus [26] it was 34%; with Rattus norvegicus [27] it was 36%.

Consider `COc1ccc2c(c1)CC(N(C)C)=NC2c1ccc(Cl)cc1.Cl` (stereo not drawn), for which the Max inhibitory effect was determined as 11% in the assay on Rattus norvegicus [7] and 0% in the assay on Rattus norvegicus [8].

On to `CN(C)C1=NC(c2ccc(N)cc2)c2ccccc2C1.Cl` (stereo not drawn), for which the results for the Max inhibitory effect with Rattus norvegicus [7] and in the assay with Rattus norvegicus [8] were 9% and 6%, respectively.

For `CN(C)C1=NC(c2ccc(Cl)cc2Cl)c2ccccc2C1.Cl` (stereo not drawn), the Max inhibitory effect in the assay with Rattus norvegicus [9] is reported as 15%; with Rattus norvegicus [10], 44%.

For the compound `Br.CN(C)C1=NC(c2ccc(Cl)cc2)c2ccc(O)cc2C1` (stereo not drawn), the inhibition in vivo at 50 mg/kg in the assay with Rattus norvegicus [3] is 18%. Moreover, at 25 mg/kg the inhibition in vivo with Rattus norvegicus [12] was 21%. For the same compound, the Max inhibitory effect with Rattus norvegicus [28] amounted to 44%; with Rattus norvegicus [29] it was 46%; in the assay on Rattus norvegicus [30] it was 5%; in the assay on Rattus norvegicus [31] it was 16%.

Take `CN(C)C1=NC(c2ccc(Cl)cc2)c2ccccc2C1` (stereo not drawn): the Max inhibitory effect with Rattus norvegicus [7] is 29%; with Rattus norvegicus [8], -1%.
